# Measured values: ChEMBL document CHEMBL5365446, “Discovery, Structure-Activity Relationships, and In Vivo Activity of Dihydropyridone Agonists of the Bile Acid Receptor TGR5” (J Med Chem, 2023)
# Legend:
# [1] = target: T1, G-protein coupled bile acid receptor 1 (Homo sapiens, UniProt Q8TDU6); test: Agonist activity at human TGR5 receptor expressed in HEK293 cells cotransfected with pCMV tag4b-TGR5 assessed as activation of intracellular cAMP production incubated overnight by luciferase reporter gene assay; format: functional, cell-based
# T1 sequence (Q8TDU6 whole entry): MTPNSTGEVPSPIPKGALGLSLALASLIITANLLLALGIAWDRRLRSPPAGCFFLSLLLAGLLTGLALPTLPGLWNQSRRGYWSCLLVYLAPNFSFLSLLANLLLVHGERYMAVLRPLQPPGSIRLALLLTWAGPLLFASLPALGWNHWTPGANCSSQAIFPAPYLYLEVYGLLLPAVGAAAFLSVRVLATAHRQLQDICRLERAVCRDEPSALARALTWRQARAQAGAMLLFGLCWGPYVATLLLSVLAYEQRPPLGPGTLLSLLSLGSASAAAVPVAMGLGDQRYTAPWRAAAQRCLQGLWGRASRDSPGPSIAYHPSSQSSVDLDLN
# [2] = target: T2, G-protein coupled bile acid receptor 1 (Mus musculus, UniProt Q80SS6); test: Agonist activity at mouse TGR5 receptor expressed in HEK293 cells cotransfected with pCMV AC6-TGR5 assessed as activation of intracellular cAMP production incubated overnight by luciferase reporter gene assay; format: functional, cell-based
# T2 sequence (Q80SS6 whole entry): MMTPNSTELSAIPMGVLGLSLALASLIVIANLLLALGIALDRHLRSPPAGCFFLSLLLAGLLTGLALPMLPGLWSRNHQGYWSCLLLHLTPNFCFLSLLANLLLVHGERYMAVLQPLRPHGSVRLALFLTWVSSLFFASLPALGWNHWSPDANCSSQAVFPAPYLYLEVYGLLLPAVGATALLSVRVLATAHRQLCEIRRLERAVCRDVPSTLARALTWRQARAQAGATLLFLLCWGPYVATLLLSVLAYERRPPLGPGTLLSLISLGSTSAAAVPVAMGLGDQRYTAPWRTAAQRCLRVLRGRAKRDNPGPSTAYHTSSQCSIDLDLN
# in vitro [3] = conditions: CD-1, mouse, plasma
# in vitro [4] = conditions: CD-1, mouse, liver microsomes
# physchem [5] = conditions: buffer, pH 7.4
# in vitro [6] = conditions: CD-1, mouse, liver microsomes; remark: listed apart in the source
# [7] = Apparent permeability across apical to basolateral side in human Caco-2 cells measured after 1 hr by LC-MS/MS analysis
# [8] = Apparent permeability across basolateral to apical side in human Caco-2 cells measured after 1 hr by LC-MS/MS analysis
# physchem [9] = conditions: buffer, pH 7.4; remark: listed apart in the source
Structure (SMILES),EC50 ([1]; read-out: EC50) [nM],EC50 ([2]; read-out: EC50) [nM],other results
COCCN1C(=O)CC(c2ccc(Cl)cc2)C(C(=O)OCc2ccc(C)cc2)=C1C (stereo not given),300,–,–
CC1=C(C(=O)OCc2ccccc2)C(c2ccc(Cl)cc2F)CC(=O)N1 (stereo not given),2000,–,–
COCCN1C(=O)CC(c2ccc(Cl)cc2)C(C(=O)OCc2ccccc2C(F)(F)F)=C1C (stereo not given),1200,–,EC50 ([2]; read-out: pEC50 (converted)): 1260 nM
COCCN1C(=O)CC(c2ccc(Cl)cc2)C(C(=O)OCc2cccc(F)c2)=C1C (stereo not given),–,800,–
C#CCN1C(=O)CC(c2ccc(Cl)cc2)C(C(=O)OCc2ccccc2)=C1C (stereo not given),700,1000,–
COCCN1C(=O)CC(c2ccc(Cl)cc2)C(C(=O)OCc2cccc(C(F)(F)F)c2)=C1C (stereo not given),400,800,–
COCCN1C(=O)CC(c2ccc(Cl)cc2)C(C(=O)OCc2ccccc2Cl)=C1C (stereo not given),300,1000,–
COc1ccccc1COC(=O)C1=C(C)N(C[C@H]2CCCO2)C(=O)C[C@H]1c1ccc(Cl)cc1 (racemic),30,–,EC50 ([1]; read-out: pEC50 (converted)): 25.1 nM
COc1ccccc1COC(=O)C1=C(C)N(C[C@@H]2CCCO2)C(=O)C[C@H]1c1ccc(Cl)cc1 (racemic),110,–,–
CC1=C(C(=O)OCc2ccccc2)C(c2ccc(C)cc2)CC(=O)N1 (stereo not given),6300,–,–
COC(=O)C1=C(C)N(C)C(=O)CC1c1ccc(Cl)cc1 (stereo not given),–,15000,–
COCCN1C(=O)CC(c2ccc(Cl)cc2)C(C(=O)OCc2ccccc2)=C1C (stereo not given),500,900,–
"COCCN1C(=O)CC(c2ccc(Cl)cc2)C(C(=O)OCc2ccccc2OC)=C1C (single isomer, unassigned)",75,120,–
COCCN1C(=O)CC(c2ccc(Cl)cc2)C(C(=O)OCc2cccc(Cl)c2)=C1C (stereo not given),–,600,–
"COCCN1C(=O)CC(c2ccc(Cl)cc2)C(C(=O)OCc2ccccc2OC)=C1C (single isomer, unassigned; enantiomer 1)",120,–,–
CCCCN1C(=O)CC(c2ccc(Cl)cc2)C(C(=O)OCc2ccccc2)=C1C (stereo not given),500,900,–
COc1ccccc1COC(=O)C1=C(C)N(CC2CCCO2)C(=O)CC1c1ccc(Cl)nc1 (racemic; 77),2,–,EC50 ([1]; read-out: pEC50 (converted)): 31.6 nM
COCCN1C(=O)CC(c2ccc(Cl)cc2)C(C(=O)OCc2ccc(F)cc2)=C1C (stereo not given),300,500,–
COCCN1C(=O)CC(c2ccc(Cl)cc2)C(C(=O)OCc2ccc(OC)cc2)=C1C (stereo not given),–,300,–
COCCN1C(=O)CC(c2ccc(Cl)cc2)C(C(=O)OCc2ccccc2F)=C1C (stereo not given),300,600,–
CCN1C(=O)CC(c2ccc(Cl)cc2)C(C(=O)OCc2ccccc2)=C1C (stereo not given),–,900,–
COc1ccccc1COC(=O)C1=C(C)N(CC2CCCO2)C(=O)CC1c1ccc(Cl)nc1 (racemic; 78),88,–,–
COCCN1C(=O)CC(c2ccc(Cl)cc2)C(C(=O)OCc2cccc(OC)c2)=C1C (stereo not given),300,–,–
COCCCN1C(=O)CC(c2ccc(Cl)cc2)C(C(=O)OCc2ccccc2OC)=C1C (stereo not given),190,730,–
CC1=C(C(=O)OCc2ccccc2)C(c2ccc(Cl)cc2)CC(=O)N1CC1CCC1 (stereo not given),–,300,EC50 ([1]; read-out: pEC50 (converted)): 316 nM
O=C1CC(c2ccc(Cl)cc2)C(C(=O)OCc2ccccc2)=CN1 (stereo not given),–,8600,–

Structure (SMILES),EC50 ([1]; read-out: EC50) [nM],EC50 ([2]; read-out: EC50) [nM],other results
COCCN1C(=O)CC(c2ccc(Cl)cc2)C(C(=O)OCc2ccc(Cl)cc2)=C1C (stereo not given),–,400,–
COCCN1C(=O)CC(c2ccc(Cl)cc2)C(C(=O)NCc2ccccc2)=C1C (stereo not given),13000,–,–
CC1=C(C(=O)OCc2ccccc2)C(c2ccccc2OC(C)C)CC(=O)N1 (stereo not given),–,2300,–
COc1ccccc1COC(=O)C1=C(C)N(Cc2ccco2)C(=O)CC1c1ccc(Cl)cc1 (stereo not given),260,160,–
COCCN1C(=O)CC(c2ccc(Cl)cc2)C(C(=O)OCc2cccc(C)c2)=C1C (stereo not given),–,–,EC50 ([2]; read-out: pEC50 (converted)): 316 nM
COCCN1C(=O)CC(c2ccc(Cl)cc2)C(C(=O)OCCCc2ccccc2)=C1C (stereo not given),800,–,–
COCCN1C(=O)CC(c2ccc(Cl)cc2)C(C(=O)OCc2cccc(C(=O)OC)c2)=C1C (stereo not given),800,800,–
COCCN1C(=O)CC(c2ccc(Cl)cc2)C(C(=O)OCc2ccccc2OC(F)(F)F)=C1C (stereo not given),–,1200,EC50 ([2]; read-out: pEC50 (converted)): 10000 nM
C=CCN1C(=O)CC(c2ccc(Cl)cc2)C(C(=O)OCc2ccccc2)=C1C (stereo not given),800,–,EC50 ([2]; read-out: pEC50 (converted)): 1580 nM
CC1=C(C(=O)OCc2ccccc2)C(c2ccc(Cl)cc2)CC(=O)N1C (stereo not given),–,–,EC50 ([1]; read-out: pEC50 (converted)): 631 nM
COCCN1C(=O)CC(c2ccc(Cl)cc2)C(C(=O)OCc2ccncc2)=C1C (stereo not given),1000,700,–
C=C(C)CN1C(=O)CC(c2ccc(Cl)cc2)C(C(=O)OCc2ccccc2)=C1C (stereo not given),800,1100,–
CC1=C(C(=O)OCc2ccccc2)C(c2ccc(Cl)cc2)CC(=O)N1Cc1ccccc1 (stereo not given),800,900,–
COCCN1C(=O)CC(c2ccc(Cl)cc2)C(C(=O)OCc2ccc(C(=O)OC)cc2)=C1C (stereo not given),300,–,–
CC1=C(C(=O)OCc2ccccc2)C(c2ccc(Cl)cc2)CC(=O)N1CCN(C)C (stereo not given),–,4700,–
COc1ccccc1COC(=O)C1=C(C)N(C[C@H]2CCCO2)C(=O)C[C@H]1c1ccc(Cl)nc1,2,–,"half-life at 10 µM (in vitro [3]): > 6 h; half-life at 40 min, 1 µM (in vitro [4]): 24 s; logD at 24 h (physchem [5]): 3.7; microsomal CLint at 40 min, 1 µM (in vitro [6]): 1310 µL/min/mg; Papp A→B at 1 h [7]: 22.5 ×10⁻⁶ cm/s; Papp B→A at 1 h [8]: 12.3 ×10⁻⁶ cm/s; solubility thermodynamic at 24 h (physchem [9]): 38.2 µM"
COc1ccccc1COC(=O)C1=C(C)N(C[C@@H]2CCCO2)C(=O)C[C@@H]1c1ccc(Cl)nc1,429,–,–
COCCN1C(=O)CC(c2ccc(Cl)cc2)C(C(=O)OCc2ccc(C(F)(F)F)cc2)=C1C (stereo not given),–,400,–
COc1ccccc1COC(=O)C1=C(C)N(C[C@@H]2CCCO2)C(=O)C[C@H]1c1ccc(Cl)nc1,35,–,–
COC(=O)CN1C(=O)CC(c2ccc(Cl)cc2)C(C(=O)OCc2ccccc2OC)=C1C (stereo not given),–,50,–
COc1ccccc1COC(=O)C1=C(C)N(C[C@H]2CCCO2)C(=O)C[C@H]1c1ccc(Cl)cc1,14,–,logD at 24 h (physchem [5]): 3.2; Papp A→B at 1 h [7]: 0.2 ×10⁻⁶ cm/s; EC50 ([1]; read-out: pEC50 (converted)): 15.8 nM; Papp B→A at 1 h [8]: 0.4 ×10⁻⁶ cm/s; solubility thermodynamic at 24 h (physchem [9]): 2.6 µM
COc1ccccc1COC(=O)C1=C(C)N(C[C@H]2CCCO2)C(=O)C[C@@H]1c1ccc(Cl)nc1,223,–,–
COc1ccccc1COC(=O)C1=C(C)N(CCO)C(=O)CC1c1ccc(Cl)cc1 (stereo not given),–,770,–
COCCN1C(=O)CC(c2ccc(Cl)cc2)C(C(=O)OCC2CCCCC2)=C1C (stereo not given),700,1200,–
COCCN1C(=O)CC(c2ccc(Cl)cc2)C(C(=O)OCc2c(C)cc(C)cc2C)=C1C (stereo not given),–,300,–
CC1=C(C(=O)OCc2ccccc2)C(c2ccc(C(F)(F)F)cc2)CC(=O)N1 (stereo not given),1200,–,–
